± gives the expanded uncertainty stated by the source.
Conditions: Liquid, Ebulliometric method (Recirculating still)

vapor or sublimation pressure (288.15 K) [kPa] | vapor or sublimation pressure (298.15 K) [kPa] | vapor or sublimation pressure (308.15 K) [kPa] | Compound
1.706 ± 0.04 | 3.172 ± 0.047 | 5.556 ± 0.055 | O [water]
2.703 ± 0.053 | 4.975 ± 0.061 | 8.119 ± 0.068 | C1COCCO1 [1,4-dioxane]
